Reference: patent US8138159B2, “Composition for inhibiting function of human Flt3” (Takara Bio Inc., priority 2003, dated 2012)
Marks after values point to notes of the source that are not given here.

Key:
Type in all cases: cell-based, human
[1] = test system: EoL1 cells (WT-highly expressing); assay: cell growth activity, Premix WST1 (Example 2); details: for Relative growth ability (%) compared with the control: siRNA 10 nM, after 20 hours, n=3 mean, control = transfection without siRNA
Procedure: (§1) The cells placed in a 96-well plate at a density of 2×10^4 cells/well were cultured in an RPMI medium (containing 10% by volume FBS). The cells were transfected with each of the synthesized (10 nM each) siRNAs, and after 20 hours, the cell growth activity was determined with Premix WST1 reagent (trade name, manufactured by TAKARA BIO INC.). Relative growth ability (%) compared with the growth ability of the control (cells subjected to transfection without adding an siRNA) was determined. Each experiment was carried out with n=3, and the mean was determined.

[2] = test system: MV4-11 cells (ITD mutation-highly expressing); assay: cell growth activity, Premix WST1 (Example 2); details: for Relative growth ability (%) compared with the control: siRNA 10 nM, after 20 hours, n=3 mean, control = transfection without siRNA
Procedure: as §1

[3] = test system: HL60 cells (WT-low expressing); assay: cell growth activity, Premix WST1 (Example 2); details: for Ratio of cell-growth activation defining RNA interference effect in HL60 as 1: HL60, the reference itself; for Relative growth ability (%) compared with the control: HL60, siRNA 10 nM, after 20 hours, n=3 mean, control = transfection without siRNA
Procedure: as §1

Flt3 mRNA = Flt3 mRNA interference by synthesized siRNA, real-time RT-PCR (Example 1); details: for inhibition percentage (%) of the relative mRNA expression level (Flt3 mRNA/GAPDH mRNA): siRNA 200 pmol, Oligofectamin, after 24 hours, vs cells transfected without siRNA
Procedure: Each kind of cell selected from HL-60 cells [Flt3 WT (wild-type) low expressing cells; ATCC CCL-240], EoL-1 cells [Flt3 WT (wild-type) highly expressing cells; ECACC 94042252] and MV4-11 cells [Flt3/ITD highly expressing cells; ATCC CRL-9591] was cultured at 37° C. in an RPMI 1640 medium (manufactured by TAKARA BIO INC.) supplemented with 10% by volume fetal bovine serum (FBS) in the presence of 5% by volume CO2.
Then, the cells (2×10^5 cells/nil) were pre-cultured for 24 hours in a 6-well plate, then recovered, and suspended so as to give a density of 1.5×10^5 cells/ml in Opti-MEM (trade name, manufactured by Invitrogen), and the synthesized siRNA was added to the resulting suspension so as to give a final concentration of 200 pmol. Transfection was carried out using Oligofectamin (trade name, manufactured by Invitrogen) in an amount of 4 μl/reaction, according to an Invitrogen's protocol attached to Oligofectamin (trade name). As a control, the cells were subjected to similar operations without adding the siRNA. The unspecific influence of the siRNA was evaluated using an siRNA to a BCR/ABL chimera mRNA.
Confirmation of RNA interference of the target gene was carried out by determining change in mRNA level by a real-time RT-PCR method as shown below.
Using Oligofectamin (trade name, manufactured by Invitrogen), each kind of cell was transfected with the synthesized siRNA. After 24 hours, whole RNA was extracted from the resulting cells with TRIzol™ reagent (manufactured by Invitrogen), and the resulting product was treated with DNaseI (manufactured by TAKARA BIO INC.). The transfection, the extraction of the whole RNA and the treatment with DNaseI were carried out according to a manufacturer's protocol of the reagent used.
The real-time PCR method was carried out using a Real Time One Step RNA PCR Kit (trade name, manufactured by TAKARA BIO INC.), 100 ng of the resulting RNA as a template and a pair of primers (each 20 pmol), that is, an oligonucleotide having the nucleotide sequence of SEQ ID NO: 13 and an oligonucleotide having the nucleotide sequence of SEQ ID NO: 14. In the real-time RT-PCR method, change in fluorescence based on SYBER Green I (manufactured by TAKARA BIO INC.) was determined with Light Cycler (trade name, manufactured by Roche). The RNA level was standardized by similarly determining GAPDH mRNA with primers set forth in SEQ ID NOs: 15 and 16.
The PCR conditions were as follows: after incubation was carried out at 95° C. for 30 seconds, the reaction was carried out in 40 cycles each consisting of the reaction at 95° C. for 1 second, then at 60° C. for 10 seconds, and at 72° C. for 30 seconds.
The inhibition percentage (%) of the relative mRNA expression level (Flt3 mRNA/GAPDH mRNA) changed by using the synthesized siRNA, as calculated assuming that the relative mRNA expression level (Flt3 mRNA/GAPDH mRNA) of the cells only subjected to each operation of the transfection without adding the synthesized siRNA was 100%, was shown in Table 1.

[4] = test system: MV4-11 (ITD mutation) cells; assay: growth inhibition by siRNA3 in combination with kinase inhibitor AG1295, WST-1 (Example 4); details: Homo sapiens, MV4-11, kinase inhibitor alone (control siRNA), 72 hours, n=6 mean, read-out: growth inhibition as compared with the cells transfected with the control siRNA/0 μM AG1295
Procedure: The growth inhibitory activity of treatment with a combination of the composition (synthesized siRNA3) of the present invention and a kinase inhibitor on MV4-11 (ITD mutation) cells was examined. The synthesized siRNA3 used was the same as in item (1) of Example 1 above. As the kinase inhibitor, AG1295 (manufactured by CALBIOCHEM) having high specificity to ITD mutation cells was used.
In the same manner as in item (2) of Example 1 above, MV4-11 cells were cultured at 37° C. for 24 hours in a medium obtained by supplementing 10% by volume fetal bovine serum (FBS) to an RPMI 1640 medium (manufactured by TAKARA BIO INC.) (referred to hereinafter as a culture medium) in the presence of 5% by volume CO2. Then, the MV4-11 cells (1×10^6 cells/ml) suspended in Opti-MEM (trade name, manufactured by Invitrogen) were transferred to a cuvette (manufactured by BIO RAD; gap of 4 mm), and siRNA3 was added to the cuvette so as to give a final concentration of 1.2 μM. Then, the cuvette was set in Gene Pulser Xcell (trade name, manufactured by BIO RAD) and thereafter pulsed with electric field intensity of 650 V/cm for 25 msec. Then, the suspension of the cells in the cuvette was added to, and suspended in, a 4-fold excess volume of the culture medium and dispensed onto a 96-well plate so as to give an amount of 100 μl/well. […]
4 mM AG1295 (dissolved in DMSO) was diluted with the above-mentioned culture medium to prepare AG1295 dilutions at a concentration of 10 μM, 6 μM and 0 μM (0.25% by volume DMSO) and added so as to give an amount of 100 μl/well to the 96-well plate prepared in step (2) above and cultured at 37° C. in the presence of 5% by volume CO2. Seventy-two hours after the culture was initiated, the growth activity of the cells was determined using Premix WST-1 reagent (trade name, manufactured by TAKARA BIO INC.) according to a manufacturer's protocol. Each experiment was carried out with n=6, and the mean was determined. The relative growth ratio (%) to the growth ability of the cells transfected with the control siRNA/0 μM AG1295 was determined. […]

[5] = EoL1 (WT-highly expressing), the reference itself
[6] = MV4-11 (ITD mutation-highly expressing)

| Molecule | Ratio of cell-growth activation defining RNA interference effect in HL60 as 1 [1] | Relative growth ability (%) compared with the control [1] | Ratio of cell-growth activation defining RNA interference effect in HL60 as 1 [2] | Relative growth ability (%) compared with the control [2] | Ratio of cell-growth activation defining RNA interference effect in HL60 as 1 [3] | Relative growth ability (%) compared with the control [3] | Relative ratio of inhibition defining RNA interference effect in EoL1 as 1 (Flt3 mRNA; [5]) | inhibition percentage (%) of the relative mRNA expression level (Flt3 mRNA/GAPDH mRNA) (Flt3 mRNA; EoL1 (WT-highly expressing)) | inhibition percentage (%) of the relative mRNA expression level (Flt3 mRNA/GAPDH mRNA) (Flt3 mRNA; HL60 (WT-low expressing)) | Relative ratio of inhibition defining RNA interference effect in EoL1 as 1 (Flt3 mRNA; [6]) | inhibition percentage (%) of the relative mRNA expression level (Flt3 mRNA/GAPDH mRNA) (Flt3 mRNA; [6]) | selective inhibition of Flt3 mRNA expression relative to the inhibition ratio in the cells without ITD mutation (WT) (Flt3 mRNA; cells having ITD mutation vs WT cells) | inhibition at 3 µM ([4]; 3.0 μM) | inhibition at 5 µM ([4]; 5.0 μM) | inhibition of Flt3 mRNA expression (in words) (Flt3 mRNA; siRNA irrelevant to Flt3 mRNA, sequence specificity) | inhibition of Flt3 mRNA expression relative to the cells without using an siRNA (Flt3 mRNA; all cells (MV4-11, EoL1, HL60)) |
| --- | --- | --- | --- | --- | --- | --- | --- | --- | --- | --- | --- | --- | --- | --- | --- | --- |
| siRNA1: siRNA to ATP-binding site region of Flt3 (target SEQ ID NO: 1); sense SEQ ID NO: 2, antisense SEQ ID NO: 3 (sense GGUACUAGGAUCAGGUGCUTT; antisense AGCACCUGAUCCUAGUACCTT; chemistry not given here) | (0.60) | 68.5% | (0.49) | 56.4% | (1)* | 116% | (1)* | 41% | 31% | (1.6) | 65% | ≥ 1.6 fold | – | – | – | – |
| Cc1cc2ncc(-c3ccccc3)nc2cc1C [AG1295] | – | – | – | – | – | – | – | – | – | – | – | – | 59.8% | 84.3% | – | – |
| siRNA4: siRNA to BCR/ABL chimera mRNA (target SEQ ID NO: 10); sense SEQ ID NO: 11, antisense SEQ ID NO: 12; unspecific control (sense GCAGAGUUCAAAAGCCCUUTT; antisense AAGGGCUUUUGAACUCUGCTT; chemistry not given here) [reference compound] | – | – | – | – | – | – | – | 8% | 7% | – | 5% | – | – | – | did not occur | – |
| siRNA2: siRNA to TK (kinase) region of Flt3 (target SEQ ID NO: 4); sense SEQ ID NO: 5, antisense SEQ ID NO: 6 (sense CAGGAGUCUCAAUCCAGGUTT; antisense ACCUGGAUUGAGACUCCUGTT; chemistry not given here) | (0.70) | 79.7% | (0.36) | 41.4% | (1) | 115% | (1) | 54% | 46% | (1) | 54% | – | – | – | – | around 50% |
